Assay results as given in US20260356860A1, “2-SUBSTITUTED 3,4A,5,7,8,8A-HEXAHYDRO-4H-THIOPYRANO[4,3-DJPYRIMIDIN-4-ONES FOR WOUND TREATMENT” (priority 2022, published 2026).

Test system: HEK293 SuperTOPFlash reporter cells, Wnt promoter
Test: HEK CELL Wnt Assay (luciferase reporter)
Format: cell-based
Settings: serial dilutions, with or without 50 ng/mL Wnt3a; 18 h
Experimental: In order to determine the effect of the compounds of Formula (I) on Wnt inhibition, an in vitro assay using HEK293 SuperTOPFlash reporter cells, with the Wnt promoter driving a luciferase reporter gene, were utilized. 40,000 HEK293 SuperTOPFlash reporter cells were seeded, per well, in a 48 well plate for 24 hours, prior to administration of serial dilutions of the compound of Formula (I) to individual wells. Serial dilutions ranging from […] to 1 nM of the compound of Formula (I) were added with or without 50 ng/mL Wnt3a (Time Biosciences) and allowed to incubate with the reporter cells for 18 hours. Reporter cells with no treatment were used as negative control.

## [2H]C1([2H])CSCc2c1nc(-c1ccc(C(F)(F)F)cc1)[nH]c2=O [Compound 13, 2-(4-(trifluoromethyl)phenyl)-3,5,7,8-tetrahydro-4H-thiopyrano[4,3-d]pyrimidin-4-one-8,8-d2]
  IC50: 4 nM

## N#Cc1ccc(-c2nc3c(c(=O)[nH]2)CSCC3)cc1 [Compound 43, 4-(4-oxo-3,5,7,8-tetrahydro-4H-thiopyrano[4,3-d]pyrimidin-2-yl)benzonitrile]
  IC50: 1000 nM
